{TEG} = triethylene glycol 5' moiety of the PMO, as defined in the publication A value given as a limit tells only on which side of the number the result lay.

One data set concerns Klebsiella pneuomoniae. Description: MIC of meropenem with added NDM-1-targeted PPMO. The note with it: without PPMO, data not shown. The data set is classed as cell-based.
Data set [1] relates to adeA-expressing Acinetobacter baumanii. Nature of the data set: MIC of gentamicin, tobramycin and tetracycline with added adeA-targeted PPMO (CLSI microdilution). The data set is classed as cell-based. The note with it: concentration dependent. For orientation: Dilution methods test growth across graded concentrations, often in twofold steps.
Data set [2] relates to B. cenocepacia K56-2. Nature of the data set: Bcc growth in artificial CF sputum. The data set is classed as cell-based. As for the experimental part:
B. cenocepacia K56-2 was incubated alone or in the presence of either a scrambled sequence (Scr) placebo PPMO or acpP PPMO (PPMO #15, Table 2C) at 10 μM or 20 μM concentration. Media or PPMO was dosed at 2, 8 and 12 hours. Samples were plated at 24 hours and CFU/ml was determined.
PPMOs were tested to determine whether they retained their activity in sputum. Using a well-described method for making “artificial CF sputum,” experiments were conducted to see whether a PPMO could reduce the burden of Bcc in this environment (FIG. 12). B. cenocepacia K56-2 was incubated alone or in the presence of either a scrambled-sequence (Scr) placebo PPMO or acpP PPMO (PPMO #15). The acpP-targeted PPMO has the following sequence: GTCCATTACCC (PPMO #15; SEQ ID NO: 25). The PPMO was conjugated at its 5′ end to the C-terminal β-alanine residue of (RFF)3RXB (SEQ ID NO: 41). Media or PPMO was dosed at 2, 8 and 12 hours. Samples were plated at 24 hours and CFU/ml was determined. The acpP PPMO was able to reduce the organism burden (both at 10 and 20 μM dosing). At 10 μM dosing, there was an approximately 2-log reduction in CFU/ml by 24-hours compared to no treatment control. At 20 μM dosing, there was a >3-log reduction seen. This reduction was apparent as early as 8 hours in the 20 μM group and 12 hours in the 10 μM group. These experiments indicate that PPMOs remain active even in the thick viscous sputum that is seen in CF patients. This is the first time that activity of PPMOs has been tested in sputum.

The test system of another data set is B. multivorans. Description: Aerosol PPMO in pulmonary infection model, lung burden. The data set is classed as in vivo. The note with it: single 300 μg aerosol dose 6 hours post-infection; CGD mice; 24 hours after infection. As for the experimental part: Chronic granulomatous disease (CGD) mice were used as a Bcc infection model. An Aerogen nebulizer was used to deliver either scrambled (Scr) PPMO ([…]) or acpP PPMO (PPMO #15, Table 2C, 300 μg or 30 μg) as a one-time dose 6 hours post-infection. Mice were euthanized 24 hours after infection and lung burden was determined as CFU/g.
Delivering PPMOs directly to the lung in the setting of chronic pulmonary infections would be useful. Chronic granulomatous disease (CGD) mice were used as a Bcc infection model. These mice develop significant morbidity and mortality when infected with various Bcc strains. Mice were infected intranasally with a clinical B. multivorans isolate (FIG. 15). An Aerogen nebulizer was used to deliver either scrambled (Scr) PPMO (300 μg) or acpP PPMO (PPMO #15, 300 μg or 30 μg) as a one-time dose 6 hours post-infection. The acpP-targeted PPMO has the following sequence: GTCCATTACCC (SEQ ID NO: 25). The PPMO was conjugated at its 5′ end to the C-terminal β-alanine residue of (RFF)3RXB (SEQ ID NO: 41). Mice were euthanized 24 hours after infection and lung burden was determined. The single 300 μg dose of the acpP PPMO reduced the lung burden by 93% and was a statistically significant decrease. Aerosol delivery of PPMOs is a viable therapeutic strategy and importantly, this is the first time that nebulized delivery of Bcc PPMOs has been attempted.

Another data set concerns B. cenocepacia H14277. Description: PPMO MIC, pan-resistant strain (FIG. 10). The data set is classed as cell-based. As for the experimental part:
In B. cenocepacia K56-2 (a genome-sequenced clinical CF isolate; Panel A) all three PPMOs caused a significant reduction of growth with one PPMO (PPMO #19; SEQ ID NO: 27; 16 μM) causing>3-log reduction of growth compared to the starting inoculum, a strong bactericidal effect. Importantly, this effect was seen even in pan-resistant strains of B. cenocepacia (HI4277, a pan-resistant outbreak isolate from CF patients; FIG. 11, Panel B). […] The MIC of PPMO #19 was 8 μM in H14277 (FIG. 10), illustrating that PPMOs' ability to inhibit growth is not dependent on the underlying level of antibiotic resistance in any particular strain, an important finding with positive implications for this approach.

Another data set relates to B. cenocepacia HI4277. Description: 24 hour growth with acpP PPMOs (bactericidal test), pan-resistant strain. The data set is classed as cell-based. As to conditions: FIG. 11 Panel B. As for the experimental part:
(§1) Two different isolates of B. cenocepacia were incubated for 24 hours in the presence or absence of different acpP PPMOs. All three acpP PPMOs caused a significant reduction of growth in the clinical CF isolate B. cenocepacia K56-2 (Panel A) and this effect was also seen for the pan-resistant strain B. cenocepacia H14277 (Panel B).
(§2) Many members of the Bcc are intrinsically antibiotic resistant making treatment difficult. B. cenocepacia is one of the most common species encountered by cystic fibrosis (CF) patients. Two different isolates of B. cenocepacia were incubated for 24 hours in the presence or absence of different acpP PPMOs (FIG. 11).

A further data set deals with 39 Bcc clinical isolates. Nature of the data set: PPMO MIC against a panel of 39 Bcc clinical isolates. The data set is classed as cell-based, Burkholderia cepacia complex. The note with it: panel of 39 isolates; FIG. 10. As for the experimental part:
A variety of Bcc isolates were tested, including clinical isolates obtained from various body sites with varying levels of antibiotic resistance. The strain bank included 39 isolates that comprised the most frequently encountered species that have been reported to cause human disease. […] All 6 of these PPMOs targeted AcpP (an acyl carrier protein associated with fatty acid biosynthesis). Differences in the 6 PPMOs related to alternative positioning sites on the target mRNA.

For data set [3], the system named is B. cenocepacia K56-2. Nature of the data set: 24 hour growth with acpP PPMOs (bactericidal test). The data set is classed as cell-based. As to conditions: 16 μM, FIG. 11 Panel A. As for the experimental part: as §1, §2
The subject of the next data set is B. cenocepacia J2315. Nature of the data set: MBEC peg biofilm assay, crystal violet and confocal microscopy. As to conditions: 10 μM. The data set is classed as cell-based. The method, then:
B. cenocepacia J2315 was grown utilizing MBEC biofilm assay plates for 48 hours in the presence of either acpP PPMO (10 μM), scrambled PPMO (10 μM), peptide or media alone. Biofilm production was measure utilizing a crystal violet method.
The pegs were moved to fresh media containing either nothing, the Scrambled (Scr) control PPMO at 10 μM concentration, or the acpP PPMO at 10 μM concentration. The MBEC pegs were incubated for another 48 hours and then stained with fluorescent green peanut-agglutinin stain for the biofilm and imaged on confocal microscopy.
The formation of biofilm is a significant virulence trait and is utilized by both P. aeruginosa and the Bcc. Bcc biofilms were grown and PPMOs were tested for their ability to both prevent biofilm formation and to deconstruct existing biofilms. B. cenocepacia J2315 (a genome sequenced, epidemic CF isolate) was grown utilizing MBEC biofilm assay plates which contain a peg that grows reproducible biofilms from day to day. J2315 was grown for 48 hours in the presence of either acpP PPMO (10 μM), scrambled PPMO (10 μM), peptide or media alone (FIG. 13). The acpP-targeted PPMO (PPMO #19) has the following sequence: CCATTACCCCT (SEQ ID NO: 27). The PPMO was conjugated at its 5′ end to the beta-alanine residue of (RFF)3RXB (SEQ ID NO: 41). Biofilm production was measured utilizing a crystal violet method. […]

Regarding `C[C@@H](O)[C@H]1C(=O)N2C(C(=O)O)=C(S[C@@H]3CN[C@H](C(=O)N(C)C)C3)[C@H](C)[C@H]12` [meropenem], in the data set with Klebsiella pneuomoniae, the MIC is around 64 µM.

“PPMO #5: adeA-targeted PMO ATA CTG TCC AA (SEQ ID NO: 15); 5′ TEG; 3′ (RXR)4XB- peptide (antisense ATACTGTCCAA; all phosphorodiamidate morpholino (PMO), 5' {TEG}; 3' end conjugated to (RXR)4XB peptide via beta-alanine)”: the MIC of gentamicin entry in [1] (FIG. 2) is reported as “significantly reduced”. Also, in data set [1] (FIG. 3), the MIC of tobramycin entry is given as “significantly reduced”. Also, in data set [1] (FIG. 4), the MIC of tetracycline result is reported as “significantly reduced”.

Take “PPMO #15: acpP-targeted PMO GTCCATTACCC (SEQ ID NO: 25); 5′ (RFF)3RXB- peptide; 3′ H (all phosphorodiamidate morpholino (PMO); 5' end conjugated to (RFF)3RXB peptide via beta-alanine, further chemistry not fully specified)”: the “reduction in CFU/ml compared to no treatment control” value was “approximately 2 log” in the data set on B. cenocepacia K56-2 [2] (10 μM dosing at 2, 8 and 12 hours, by 24-hours); above 3 log in the data set on B. cenocepacia K56-2 [2] (20 μM dosing at 2, 8 and 12 hours, 24 hours). Further, the “time at which the reduction was apparent” value in the data set with B. cenocepacia K56-2 [2] (10 μM group) turned out to be 12 h; in the data set on B. cenocepacia K56-2 [2] (20 μM group) it was 8 h. The “reduced the lung burden” value in the data set on B. multivorans amounted to 93%.

Take “PPMO #19: acpP-targeted PMO CCATTACCCCT (SEQ ID NO: 27); 5′ (RFF)3RXB- peptide; 3′ H (all phosphorodiamidate morpholino (PMO); 5' end conjugated to (RFF)3RXB peptide via beta-alanine, further chemistry not fully specified)”: the MIC with B. cenocepacia H14277 is 8 µM. The bactericidal effect result in the data set on B. cenocepacia HI4277 is “bactericidal”. In addition, the IC75 (as a rule, the concentration at which the effect reaches the 75% level) in the data set with 39 Bcc clinical isolates is 4 µM. In the data set on B. cenocepacia K56-2 [3], the “reduction of growth compared to the starting inoculum” value is given as above 3 log. Moreover, in the data set on B. cenocepacia J2315 (48 hours, crystal violet, FIG. 13), the “reduced biofilm formation compared to controls” value is above 50%. Besides, in the data set with B. cenocepacia J2315 (48 h biofilm then 48 hours more, confocal microscopy and crystal violet, FIG. 14C), the “amount of existing biofilm present” value is listed as “significantly reduced”.

The record behind these values is patent publication US11021706B2, “Antisense antibacterial compounds and methods” (priority 2014, dated 2021).
